Key:
[1] = test system: Escherichia coli, ATCC #26; assay: MIC, serial twofold broth dilution in Mueller Hinton broth; assay type: cell-based; details: Escherichia coli ATCC #26, Mueller Hinton broth
[2] = test system: Staphylococcus aureus Smith; assay: as above; assay type: cell-based
[3] = cited from earlier work

| Substance | E. coli MIC [1] [micrograms per milliliter] | Staph MIC [2] [µg/mL] | renal toxicity ([3]; patients, recommended dosing) | overall incidence of neurotoxicity ([3]; human, in vivo) [%] |
| --- | --- | --- | --- | --- |
| Polymyxin B [reference compound] | 0.6 | > 10 | Some renal toxicity was observed | – |
| colistin | – | – | – | 7.3 |

Reference: patent publication US20060004185A1, “Peptide antibiotics and peptide intermediates for their prepartion” (priority 2004, published 2006)
